# Source: patent US4337266A, “Cytostatic terminally bifunctional sugar alcohols process for preparing them and pharmaceutical compositions containing them” (priority 1979, dated 1982)
# Assays:
# [1] = system: Walker intramuscular carcinosarcoma; assay: Activity against Walker intramuscular carcinosarcoma; format: in vivo
# Source text: Activity against Walker intramuscular carcinosarcoma
# [2] = system: S-180 subcutan sarcoma; assay: Activity against S-180 subcutan sarcoma; format: in vivo; conditions: 8 × 50 mg/kg/ip
# Source text: |Activity against S-180 subcutan sarcoma
# [3] = Toxicity tests, LD50 on mice after intraperitoneal administration; conditions: mouse, in vivo, ip
# Source text: LD50 values on mice after intraperitoneal administ-
SMILES,Antitumour activity ([1]; 1 × 50 mg/kg/ip) [%],Antitumour activity ([1]; 1 × 100 mg/kg/ip) [%],Antitumour activity [2] [%],LD50 [3] [mg/kg]
"CO[C@H]([C@H](OC)[C@@H]1CO1)[C@H]1CO1 [DMDAD, 1,2-5,6-dianhydro-3,4-dimethyl dulcitol]",55,80,80,680
"CO[C@H]([C@H](OC)[C@@H](O)CBr)[C@H](O)CBr [DMDBD, 1,6-dibromo-1,6-dideoxy-3,4-dimethyl dulcitol]",80,99,90,700
"CO[C@H]([C@@H]1CO1)[C@H]1CO1 [MMDAX, 1,2-4,5-dianhydro-3-methyl-xylitol]",–,90,75,500
